Where two headings read alike, the source gives them in different places.
Columns and labels:
[1] = Fluorescence emission and fluorescence quantum yield; assay type: physicochemical; settings: for Φf (fluorescence quantum yield): relative to magnesium tetra-tert-butylphthalocyanine in CHCl3, room temperature
Excerpt: (§1) The absorption bands of each photosensitiser are relatively insensitive to solvent changes with solutions in water/Cremophor resulting in a further bathochromic shift of ˜10 nm (Table 1). Excitation of chloroform solutions of the 2a and 4a at 635 nm gave a fluorescence band at 672 and 673 nm respectively (FIG. 2, Table 2). […] The reduction in fluorescence quantum yield in the series would imply more efficient population of the triplet excited state which would benefit singlet oxygen production. The ability of 2 and 4 to produce singlet oxygen would be a prerequisite to them being potential PDT agents.

[2] = Spectroscopic absorbance properties; assay type: physicochemical
Excerpt: as §1

HeLa cells = test: Light/dark cytotoxicity study (MTT) in HeLa cells; assay type: cell-based
Method: (§2) MRC5 and HeLa cell cultures were maintained in MEM (minimum essential medium) containing 10% (v/v) foetal calf serum (FCS), 1% (v/v) non-essential amino acids, 2 μg/ml Fungizone (Trade Mark) (amphotericin B), 50 μg/ml penicillin, 50 μg/ml streptomycin, 20 mM HEPES and 1% (v/v) L-Glutamine. Cells were passaged at least twice before use in the cytotoxicity assays.
(§3) Stock haematoporphyrin water-dimethyl sulphoxide (DMSO) (100:1 (v/v)) solutions were diluted with MEM containing 10% FCS. Cells were seeded at 5,000 cells/well in 96-well plates and incubated for 24 hr at 37° C. The 24 hour incubation period was chosen having regard to the slower uptake of haernatoporphyrin in the absence of Cremophor, when compared to the compounds of the present invention in the presence of Cremophor (see below). Cells were then incubated with haematoporphyrin in the dark for 24 hr at 37° C. The haematoporphyrin laden culture medium was then removed by filtration, the cells were washed with PBS and fresh culture medium was added to each well. A 500 W light source, passed through a red glass and water filter barrier, (to ensure cells are irradiated with light of wavelength greater than 570 nm) was used to irradiate the plates for both 15 and 30 min. Following irradiation, the cells were incubated for a further 48 hr at 37° C. before being assessed for cell survival.
(§4) Stock 2a or 2b water-Cremophor EL (Trade Mark—CAS 61791-12-6) (1:250 (v/v)) solutions were diluted with MEM containing 10% FCS. Cells were seeded at 5,000 cells/well in 96-well plates and incubated for 24 hr at 37° C. Cells were then incubated with 2a or 2b in the dark for 3 hr at 37° C. The 3 hour incubation period was chosen to reflect the faster cellular uptake of 2a or 2b in the presence of Cremophor, when compared to the cellular uptake of haematoporphyrins in the absence of Cremophor. The 2a or 2b laden culture medium was then removed by filtration, the cells were washed with PBS and fresh culture medium was added to each well. The plates were then irradiated using a 500 W light source passed through a red glass and water filter barrier, (thereby ensuring cells are irradiated with light of wavelength greater than 570 nm) for both 15 and 30 min.
(§5) Following irradiation, the cells were incubated for a further 48 hr at 37° C. before being assessed for cell survival. The dark toxicity of compounds of the present invention was also assessed in each experiment.
(§6) Cell viability was estimated using the standard MTT (microtiter tetrazolium) assay. This assay measures mitochondrial dehydrogenase activity and is based on the reduction of a soluble yellow tetrazolium salt to a blue, insoluble MTT formazan product by this enzyme. The subsequent colour change produced by viable cells was quantified using a plate reader (VICTOR^2 1420 multilabel HTS counter, Wallac). As mentioned above under the headings “Cytotoxicity”, the cells are incubated at 37° C. for 48 hours, following which the MTT solution was added to the cells at a final concentration of 0.5 mg/ml and incubated for 3 hr at 37° C. The MTT solution was then removed by filtration and 100 μl DMSO was added to each well in order to lyse the cells and release the formazan dye. The plates were read 1 hr later at 540 nm.
(§7) Prism (Trade Mark) […] was used to graph the data obtained from the MTT assays and the uptake/efflux experiments. This programme allows non-linear regression analysis and the generation of sigmoidal dose response curves. Prism (Trade Mark) also automatically calculates EC50 values.
(§8) Light toxicity assays were also carried out as described above under “Assay methods” in HeLa and MRC5 cells for haematoporphyrin (FIGS. 9 and 10), 2a (FIGS. 11 and 12) and 2b (FIGS. 13 and 14).

MRC5 cells = test: Light/dark cytotoxicity study (MTT) in MRC5 cells; assay type: cell-based
Method: as §2, §3, §4, §5, §6, §7, §8

[3] = CHCl3, room temperature, excitation at 635 nm
[4] = Water/Cremophor (100:1), room temperature

| SMILES | λ em (fluorescence band) [1, 3] [nm] | λ em (fluorescence band) [1, 4] [nm] | Φf (fluorescence quantum yield) [1] | fwhm (full width at half maximum) ([2]; CHCl3, room temperature) [nm] | ε (molar extinction coefficient) ([2]; CHCl3, room temperature) | λmax (absorbance) ([2]; CHCl3, room temperature) [nm] | fwhm (full width at half maximum) [2, 4] [nm] | λmax (absorbance) [2, 4] [nm] | EC50 (HeLa cells; 0 J/cm^2 light (no light), read-out: EC50 (dark toxicity)) [µM] | EC50 (HeLa cells; 8 J/cm^2 light (15 mins from a 500 W light source), read-out: EC50) [µM] | EC50 (HeLa cells; 16 J/cm^2 light (30 mins from a 500 W light source), read-out: EC50) [µM] | EC50 (dark toxicity) (MRC5 cells; MRC5, 0 J/cm^2 light (no light)) | EC50 (MRC5 cells; MRC5, 8 J/cm^2 light (15 mins from a 500 W light source), read-out: EC50) [µM] | EC50 (MRC5 cells; MRC5, 16 J/cm^2 light (30 mins from a 500 W light source), read-out: EC50) [µM] | EC50 (HeLa cells; Homo sapiens, light or radiation study, 0 J/cm^2 light (no light), read-out: EC50 (dark toxicity)) [µM] | EC50 (HeLa cells; Homo sapiens, light or radiation study, 0.25 h, 8 J/cm^2 light (15 mins from a 500 W light source), read-out: EC50) [µM] | EC50 (HeLa cells; Homo sapiens, light or radiation study, 0.5 h, 16 J/cm^2 light (30 mins from a 500 W light source), read-out: EC50) [µM] | EC50 (MRC5 cells; Homo sapiens, light or radiation study, 0.25 h, MRC5, 8 J/cm^2 light (15 mins from a 500 W light source), read-out: EC50) [µM] | EC50 (MRC5 cells; Homo sapiens, light or radiation study, 0.5 h, MRC5, 16 J/cm^2 light (30 mins from a 500 W light source), read-out: EC50) [µM] | EC50 (MRC5 cells; Homo sapiens, light or radiation study, MRC5, 0 J/cm^2 light (no light), read-out: EC50 (dark toxicity)) [µM] |
| --- | --- | --- | --- | --- | --- | --- | --- | --- | --- | --- | --- | --- | --- | --- | --- | --- | --- | --- | --- | --- |
| COc1ccc(C2=[N+]3C(=Nc4c(-c5ccccc5)cc(-c5ccc(OC)cc5)n4[B-]3(F)F)C(c3ccccc3)=C2)cc1 [Compound 2b] | 715 | 727 | 0.36 | 55 | 85,000 M^−1cm^−1 | 688 | 57 | 696 | 62 | 53 | 25 | un-measurable | 220 | 22 | – | – | – | – | – | – |
| CC1=C(CCC(=O)O)c2cc3[nH]c(cc4nc(cc5[nH]c(cc1n2)c(C)c5C(C)O)C(C)=C4C(C)O)c(C)c3CCC(=O)O (stereo not shown) [haematoporphyrin, reference compound] | – | – | – | – | – | – | – | – | – | – | – | – | – | – | 77 | 15 | 16 | 42 | 29 | 1400 |

Second part, led by results:

| λ em (fluorescence band) [1, 3] [nm] | λ em (fluorescence band) [1, 4] [nm] | Φf (fluorescence quantum yield) [1] | fwhm (full width at half maximum) ([2]; CHCl3, room temperature) [nm] | ε (molar extinction coefficient) ([2]; CHCl3, room temperature) | λmax (absorbance) ([2]; CHCl3, room temperature) [nm] | fwhm (full width at half maximum) [2, 4] [nm] | λmax (absorbance) [2, 4] [nm] | SMILES | EC50 (HeLa cells; 0 J/cm^2 light (no light), read-out: EC50 (dark toxicity)) [µM] | EC50 (HeLa cells; 8 J/cm^2 light (15 mins from a 500 W light source), read-out: EC50) [µM] | EC50 (HeLa cells; 16 J/cm^2 light (30 mins from a 500 W light source), read-out: EC50) [µM] | EC50 (dark toxicity) (MRC5 cells; MRC5, 0 J/cm^2 light (no light)) | EC50 (MRC5 cells; MRC5, 8 J/cm^2 light (15 mins from a 500 W light source), read-out: EC50) [µM] | EC50 (MRC5 cells; MRC5, 16 J/cm^2 light (30 mins from a 500 W light source), read-out: EC50) [µM] | EC50 (HeLa cells; Homo sapiens, light or radiation study, 0 J/cm^2 light (no light), read-out: EC50 (dark toxicity)) [µM] | EC50 (HeLa cells; Homo sapiens, light or radiation study, 0.25 h, 8 J/cm^2 light (15 mins from a 500 W light source), read-out: EC50) [µM] | EC50 (HeLa cells; Homo sapiens, light or radiation study, 0.5 h, 16 J/cm^2 light (30 mins from a 500 W light source), read-out: EC50) [µM] | EC50 (MRC5 cells; Homo sapiens, light or radiation study, 0.25 h, MRC5, 8 J/cm^2 light (15 mins from a 500 W light source), read-out: EC50) [µM] | EC50 (MRC5 cells; Homo sapiens, light or radiation study, 0.5 h, MRC5, 16 J/cm^2 light (30 mins from a 500 W light source), read-out: EC50) [µM] | EC50 (MRC5 cells; Homo sapiens, light or radiation study, MRC5, 0 J/cm^2 light (no light), read-out: EC50 (dark toxicity)) [µM] |
| --- | --- | --- | --- | --- | --- | --- | --- | --- | --- | --- | --- | --- | --- | --- | --- | --- | --- | --- | --- | --- |
| 673 | 679 | 0.012 | 47 | 79,000 M^−1cm^−1 | 650 | 57 | 651 | F[B-]1(F)n2c(c(-c3ccccc3)c(Br)c2-c2ccccc2)N=C2C(c3ccccc3)=C(Br)C(c3ccccc3)=[N+]21 [Compound 4a] | – | – | – | – | – | – | – | – | – | – | – | – |
| 714 | 719 | 0.10 | 57 | 75,000 M^−1cm^−1 | 679 | 86 | 685 | COc1ccc(C2=[N+]3C(=Nc4c(-c5ccccc5)c(Br)c(-c5ccc(OC)cc5)n4[B-]3(F)F)C(c3ccccc3)=C2Br)cc1 [Compound 4b] | – | – | – | – | – | – | – | – | – | – | – | – |
| 680 | – | – | – | 74,000 M^−1cm^−1 | 658 | – | 667 | F[B-]1(F)n2c(-c3ccccc3)cc(-c3ccc(Br)cc3)c2N=C2C(c3ccc(Br)cc3)=CC(c3ccccc3)=[N+]21 [Compound 5a] | – | – | – | – | – | – | – | – | – | – | – | – |

Source: US7220732B2, “Compounds useful as photodynamic therapeutic agents” (priority 2002, dated 2007)
